Results: ChEMBL document CHEMBL5523759, “Discovery of Novel HDAC3 Inhibitors with PD-L1 Downregulating/Degrading and Antitumor Immune Effects” (J Med Chem, 2024)
Values belong to the molecule of their own block, whether it stands above or below them. Active and inactive are the calls of the source. The calls are words filed in the database; no cut-off is given here.

Tests used:
Jurkat = experiment: Antiproliferative activity against human Jurkat T cells assessed as reduction in cell viability measured for 48 hrs by CCK-8 assay; type: functional, cell-based
B16-F10 [1] = experiment: Antiproliferative activity against mouse B16-F10 cells assessed as reduction in cell viability measured for 48 hrs by MTT assay; type: functional, cell-based; conditions: B16-F10, 48 h
Histone deacetylase 8 = molecular target: T1, Histone deacetylase 8 (Homo sapiens, UniProt Q9BY41); experiment: Inhibition of human recombinant HDAC8 using Ac-Leu-Gly-Lys (Tfa)-AMC as substrate preincubated with compound for 10 mins followed by substrate addition and measured after 45 mins by TECAN microtiter plate reader analysis
T1 sequence (Q9BY41 whole entry): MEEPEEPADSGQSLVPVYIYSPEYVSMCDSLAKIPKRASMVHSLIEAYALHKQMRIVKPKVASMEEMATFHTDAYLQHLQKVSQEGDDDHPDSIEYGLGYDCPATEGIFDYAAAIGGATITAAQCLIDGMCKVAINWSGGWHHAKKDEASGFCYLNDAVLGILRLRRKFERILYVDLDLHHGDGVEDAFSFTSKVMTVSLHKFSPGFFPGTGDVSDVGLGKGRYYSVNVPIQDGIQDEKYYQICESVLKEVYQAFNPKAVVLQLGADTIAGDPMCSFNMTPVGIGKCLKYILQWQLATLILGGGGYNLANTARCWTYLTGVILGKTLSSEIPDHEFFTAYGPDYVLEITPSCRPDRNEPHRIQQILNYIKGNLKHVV

Histone deacetylase 1 = Histone deacetylase 1 (Homo sapiens, UniProt Q13547); experiment: Inhibition of human recombinant HDAC1 using Ac-Leu-Gly-Lys (Ac)-AMC as substrate preincubated with compound for 10 mins followed by substrate addition and measured after 45 mins by TECAN microtiter plate reader analysis
MCF7 = experiment: cells; conditions: Homo sapiens, MCF7, 48 h
Description: Antiproliferative activity against human MCF7 cells assessed as reduction in cell viability measured for 48 hrs by MTT assay

Histone deacetylase 7 = molecular target: T2, Histone deacetylase 7 (Homo sapiens, UniProt Q8WUI4); experiment: Inhibition of human recombinant HDAC7 using Ac-Leu-Gly-Lys (Tfa)-AMC as substrate preincubated with compound for 10 mins followed by substrate addition and measured after 45 mins by TECAN microtiter plate reader analysis
T2 sequence (Q8WUI4 whole entry): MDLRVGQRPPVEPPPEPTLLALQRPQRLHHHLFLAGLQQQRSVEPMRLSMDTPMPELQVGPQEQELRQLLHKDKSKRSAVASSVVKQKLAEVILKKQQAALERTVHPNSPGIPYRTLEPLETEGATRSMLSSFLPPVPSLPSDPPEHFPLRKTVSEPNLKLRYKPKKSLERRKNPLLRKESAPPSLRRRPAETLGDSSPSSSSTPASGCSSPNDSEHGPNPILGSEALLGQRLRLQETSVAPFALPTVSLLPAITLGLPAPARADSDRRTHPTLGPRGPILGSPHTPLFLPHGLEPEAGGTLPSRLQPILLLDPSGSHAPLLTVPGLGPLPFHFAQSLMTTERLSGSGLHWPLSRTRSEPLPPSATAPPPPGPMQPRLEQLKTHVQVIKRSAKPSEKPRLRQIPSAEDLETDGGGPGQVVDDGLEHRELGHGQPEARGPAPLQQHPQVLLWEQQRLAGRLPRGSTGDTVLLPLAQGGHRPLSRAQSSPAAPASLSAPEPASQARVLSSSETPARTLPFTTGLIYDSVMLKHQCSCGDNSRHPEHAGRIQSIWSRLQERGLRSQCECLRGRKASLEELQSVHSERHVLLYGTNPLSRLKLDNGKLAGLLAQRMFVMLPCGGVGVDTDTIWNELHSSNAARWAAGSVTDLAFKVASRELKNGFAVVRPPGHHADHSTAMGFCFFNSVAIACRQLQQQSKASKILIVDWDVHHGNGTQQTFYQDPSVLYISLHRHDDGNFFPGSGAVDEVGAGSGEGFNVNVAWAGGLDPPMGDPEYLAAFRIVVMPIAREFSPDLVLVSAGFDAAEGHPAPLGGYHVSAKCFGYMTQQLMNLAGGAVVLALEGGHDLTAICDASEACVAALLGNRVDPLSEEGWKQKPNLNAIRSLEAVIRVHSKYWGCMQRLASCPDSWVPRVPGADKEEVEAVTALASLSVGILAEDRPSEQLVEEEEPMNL

HepG2 = experiment: Antiproliferative activity against human HepG2 cells assessed as reduction in cell viability measured for 48 hrs by MTT assay; type: functional, cell-based; conditions: HepG2, 48 h
HCT-116 = experiment: cells; conditions: Homo sapiens, HCT-116, 48 h
Description: Antiproliferative activity against human HCT-116 cells assessed as reduction in cell viability measured for 48 hrs by MTT assay

[2] = molecular target: T3, Protein deacetylase HDAC6 (Homo sapiens, UniProt Q9UBN7); experiment: Inhibition of human recombinant HDAC6 using Ac-Leu-Gly-Lys (Ac)-AMC as substrate preincubated with compound for 10 mins followed by substrate addition and measured after 45 mins by TECAN microtiter plate reader analysis
T3 sequence (Q9UBN7 whole entry): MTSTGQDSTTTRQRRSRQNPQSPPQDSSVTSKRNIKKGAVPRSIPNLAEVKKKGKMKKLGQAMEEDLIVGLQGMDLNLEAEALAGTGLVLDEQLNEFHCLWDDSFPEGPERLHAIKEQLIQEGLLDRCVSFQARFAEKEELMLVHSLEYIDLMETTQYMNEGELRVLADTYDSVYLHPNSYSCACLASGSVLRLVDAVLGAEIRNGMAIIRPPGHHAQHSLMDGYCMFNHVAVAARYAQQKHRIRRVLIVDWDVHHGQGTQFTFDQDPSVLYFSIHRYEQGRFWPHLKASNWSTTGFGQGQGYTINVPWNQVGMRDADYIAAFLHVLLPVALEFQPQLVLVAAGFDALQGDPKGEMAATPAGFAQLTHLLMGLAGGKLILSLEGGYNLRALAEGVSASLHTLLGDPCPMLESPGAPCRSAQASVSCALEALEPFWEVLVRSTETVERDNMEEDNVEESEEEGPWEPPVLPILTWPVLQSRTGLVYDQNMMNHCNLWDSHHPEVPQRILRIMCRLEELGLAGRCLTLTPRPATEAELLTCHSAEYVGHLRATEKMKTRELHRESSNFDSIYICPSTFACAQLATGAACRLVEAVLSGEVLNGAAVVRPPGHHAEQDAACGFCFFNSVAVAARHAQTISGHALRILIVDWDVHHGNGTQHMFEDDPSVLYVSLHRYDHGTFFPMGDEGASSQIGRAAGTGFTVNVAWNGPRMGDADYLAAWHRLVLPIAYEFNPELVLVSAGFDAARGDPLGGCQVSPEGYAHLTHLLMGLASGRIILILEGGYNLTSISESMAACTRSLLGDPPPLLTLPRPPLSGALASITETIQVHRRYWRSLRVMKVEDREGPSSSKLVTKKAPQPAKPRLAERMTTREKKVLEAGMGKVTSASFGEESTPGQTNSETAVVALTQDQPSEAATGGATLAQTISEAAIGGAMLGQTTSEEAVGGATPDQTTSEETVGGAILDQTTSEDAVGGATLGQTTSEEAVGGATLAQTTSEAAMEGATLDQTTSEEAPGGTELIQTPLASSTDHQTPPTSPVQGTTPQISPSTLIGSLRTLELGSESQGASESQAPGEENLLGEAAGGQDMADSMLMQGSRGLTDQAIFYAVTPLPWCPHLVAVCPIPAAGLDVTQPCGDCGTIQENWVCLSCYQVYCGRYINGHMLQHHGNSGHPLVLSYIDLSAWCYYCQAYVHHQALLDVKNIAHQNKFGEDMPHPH

Histone deacetylase 3 = Histone deacetylase 3 (Homo sapiens, UniProt O15379); experiment: Inhibition of human recombinant HDAC3 using Ac-Leu-Gly-Lys (Ac)-AMC as substrate preincubated with compound for 10 mins followed by substrate addition and measured after 45 mins by TECAN microtiter plate reader analysis
B16-F10 [3] = experiment: Antitumor activity against mouse B16-F10 cells implanted in C57BL/6 mouse model assessed as increase in Ac-H3 expression in tumor at 25 mg/kg, po administered for 9 days by Western blot analysis; type: functional, organism-based; conditions: time 9.0 day
B16-F10 [4] = experiment: Antitumor activity against mouse B16-F10 cells implanted in C57BL/6 mouse model assessed as upregulation of Ac-H3 expression at 25 mg/kg, po administered for 9 days by Western blot analysis; type: functional, organism-based; conditions: time 9.0 day
B16-F10 [5] = experiment: Antitumor immunity against mouse B16-F10 cells implanted in C57BL/6 mouse model assessed as increase in CD3+ CD4+ T cells at 25 mg/kg, po administered for 9 days (reference value: 1.50%); type: functional; conditions: time 9 day
B16-F10 [6] = experiment: Antitumor activity against mouse B16-F10 cells implanted in C57BL/6 mouse model assessed as tumor growth inhibition at 25 mg/kg, IG administered for 9 days; type: functional; conditions: B16-F10, po, 216 h, time 9 day, read-out: TGI
B16-F10 [7] = experiment: Antitumor immunity against mouse B16-F10 cells implanted in C57BL/6 mouse model assessed as increase in CD3+ CD8+ T cells at 25 mg/kg, po administered for 9 days (reference value: 1.01%); type: functional; conditions: time 9 day

Histone deacetylase 1, sequence (Q13547 whole entry): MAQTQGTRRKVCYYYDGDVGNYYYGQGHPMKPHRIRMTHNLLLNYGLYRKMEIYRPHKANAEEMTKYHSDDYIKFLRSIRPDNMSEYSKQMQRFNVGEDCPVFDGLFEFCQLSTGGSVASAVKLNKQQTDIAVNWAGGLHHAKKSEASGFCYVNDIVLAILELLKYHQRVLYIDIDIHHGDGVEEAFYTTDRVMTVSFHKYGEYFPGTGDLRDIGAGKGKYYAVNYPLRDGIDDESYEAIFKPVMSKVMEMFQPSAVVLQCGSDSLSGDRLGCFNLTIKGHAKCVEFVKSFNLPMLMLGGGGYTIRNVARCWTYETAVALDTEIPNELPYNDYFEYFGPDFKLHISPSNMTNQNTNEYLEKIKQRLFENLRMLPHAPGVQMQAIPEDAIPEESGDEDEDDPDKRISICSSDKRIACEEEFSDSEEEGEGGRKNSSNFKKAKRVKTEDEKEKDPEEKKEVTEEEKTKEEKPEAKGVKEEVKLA
Histone deacetylase 3, sequence (O15379 whole entry): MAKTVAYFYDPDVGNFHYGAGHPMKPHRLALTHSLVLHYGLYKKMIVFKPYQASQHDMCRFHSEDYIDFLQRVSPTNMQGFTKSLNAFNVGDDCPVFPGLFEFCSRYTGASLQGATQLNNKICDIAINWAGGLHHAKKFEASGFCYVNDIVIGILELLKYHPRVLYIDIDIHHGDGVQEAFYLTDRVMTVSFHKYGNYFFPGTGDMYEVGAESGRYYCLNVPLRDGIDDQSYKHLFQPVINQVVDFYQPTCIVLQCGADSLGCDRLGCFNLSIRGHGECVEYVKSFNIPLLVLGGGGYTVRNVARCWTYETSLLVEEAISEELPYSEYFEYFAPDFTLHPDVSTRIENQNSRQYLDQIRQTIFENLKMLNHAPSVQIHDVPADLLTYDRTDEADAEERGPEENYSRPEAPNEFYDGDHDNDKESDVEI

IC50 (Jurkat): 450 nM
Compound: Nc1ccccc1NC(=O)CCCCCCNC(=O)c1ncc(CNc2ccccc2)s1

IC50 (B16-F10 [1]): 3220 nM | IC50 (Jurkat): 240 nM | IC50 (Histone deacetylase 8): > 10000 nM | IC50 (Histone deacetylase 1): 230 nM | IC50 (MCF7): > 10000 nM | IC50 (Histone deacetylase 7): > 10000 nM | IC50 (HepG2): 510 nM | IC50 (HCT-116): 1590 nM | IC50 [2]: > 10000 nM
Compound: Nc1ccccc1NC(=O)c1ccc(CNC(=O)c2ncc(CNc3ccccc3)s2)cc1

IC50 (Jurkat): 670 nM
Compound: Nc1ccccc1NC(=O)CCCCC(=O)Nc1ccc(-c2ncc(CNc3ccccc3)s2)cc1

IC50 (Jurkat): > 10000 nM
Compound: CCCNNC(=O)CCCCCNC(=O)c1ncc(CNc2ccccc2)s1

IC50 (Jurkat): > 10000 nM
Compound: CCCNNC(=O)CNC(=O)c1ncc(CNc2ccccc2)s1

IC50 (B16-F10 [1]): 2980 nM | IC50 (Jurkat): 80 nM | IC50 (Histone deacetylase 8): > 10000 nM | IC50 (Histone deacetylase 1): 390 nM | IC50 (MCF7): 4240 nM | IC50 (Histone deacetylase 7): > 10000 nM | IC50 (HepG2): 370 nM | IC50 (Histone deacetylase 3): 140 nM | IC50 (HCT-116): 920 nM | IC50 [2]: 8310 nM
Compound: Nc1ccccc1NC(=O)c1ccc(CNC(=O)c2ccc(-c3ncc(CNc4ccccc4)s3)cc2)cc1

IC50 (Jurkat): 950 nM
Compound: Nc1ccccc1NC(=O)CCCCNC(=O)c1ncc(CNc2ccccc2)s1

Compound: Cc1c(COc2cc(OCc3cccc(C#N)c3)c(CNC(C)(C)C(=O)O)cc2Cl)cccc1-c1ccccc1
Activity (B16-F10 [3]): inactive | Activity (B16-F10 [4]): inactive | Activity (B16-F10 [5]): 3.58% | inhibition in vivo at 25 mg/kg (B16-F10 [6]): 67% | Activity (B16-F10 [7]): 3.28%

IC50 (Jurkat): 1180 nM
Compound: CCCNNC(=O)CCCCNC(=O)c1ncc(CNc2ccccc2)s1

IC50 (Jurkat): 4880 nM
Compound: CCCNNC(=O)CCCNC(=O)c1ncc(CNc2ccccc2)s1

IC50 (Jurkat): 1510 nM
Compound: CCCNNC(=O)CCCCCCNC(=O)c1ncc(CNc2ccccc2)s1

IC50 (Jurkat): 550 nM
Compound: CCCNNC(=O)c1ccc(NC(=O)c2ncc(CNc3ccccc3)s2)cc1

IC50 (Jurkat): 2520 nM
Compound: Nc1ccccc1NC(=O)c1ccc(NC(=O)c2ncc(CNc3ccccc3)s2)cc1

IC50 (Jurkat): 5150 nM
Compound: Nc1ccccc1NC(=O)CCNC(=O)c1ncc(CNc2ccccc2)s1

IC50 (B16-F10 [1]): 8940 nM | IC50 (Jurkat): 100 nM | IC50 (Histone deacetylase 8): 9080 nM | IC50 (Histone deacetylase 1): 720 nM | IC50 (MCF7): 4440 nM | IC50 (Histone deacetylase 7): > 10000 nM | IC50 (HepG2): 740 nM | IC50 (Histone deacetylase 3): 140 nM | IC50 (HCT-116): > 10000 nM | IC50 [2]: > 10000 nM
Compound: Nc1ccccc1NC(=O)/C=C/c1ccc(CNC(=O)c2ccc(-c3ncc(CNc4ccccc4)s3)cc2)cc1
